The values below are quoted from earlier work in patent publication EP0775491A1, “IMMUNOPOTENTIATOR” (TAYCA CORPORATION, priority 1995, dated 1997).

Where two headings read alike, the source gives them in different places.

The conditions of the data set: oral administration to rats.

The term LD50 denotes the dose expected to kill half of the subjects tested. Consider `COC(COC(N)=O)C1=C(N2CC2)C(=O)C(C)=C(N2CC2)C1=O` (stereo not shown) [Carboquone], for which the LD50 was 27.3 mg/kg.

Regarding `O=c1[nH]cc(F)c(=O)[nH]1` [Fluorouracil], the LD50 is 781 mg/kg.

For the compound `O=P1(N(CCCl)CCCl)NCCCO1` (stereo not shown) [Cyclophosphide], the LD50 is, setting by setting: (female) 118 mg/kg; (male) 100 mg/kg.
